Legend:
[1] = biological target: T1, Recombinant human His6-USP1/His6-UAF1 complex protein (Homo sapiens, UniProt O94782); assay: In vitro inhibitory activity against USP1 (Ubiquitin Rhodamine 110 fluorescence detection, 384-well plate); format: biochemical; settings: Ub-Rho substrate, 1 hour pre-incubation, read after 30 minutes
T1 construct: His6; purchased R&D E-568-050
Procedure, shortened: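 Compounds, kept as 50 mM DMSO stocks, were acoustically dispensed into modified Tris buffer. Inhibition of recombinant human His6-USP1/His6-UAF1 was read by fluorescence from cleavage of Ub-Rho110 substrate.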

MDA-MB-436 = assay: CTG experiment for cell viability (CellTiter-Glo, 96-well plate, 7 days); format: cell-based; settings: Homo sapiens, MDA-MB-436, 168 h, MDA-MB-436 cells, 7 days culture with compound
Procedure, shortened: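 Viability was read by CellTiter-Glo luminescence after 10 min at room temperature, once the compound-containing medium had been replaced with PBS. Before that, MDA-MB-436 cells grown in DMEM were exposed to compounds for 7 days at 37°C. Curve fitting followed the enzyme assay method.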

T1 sequence (O94782 whole entry): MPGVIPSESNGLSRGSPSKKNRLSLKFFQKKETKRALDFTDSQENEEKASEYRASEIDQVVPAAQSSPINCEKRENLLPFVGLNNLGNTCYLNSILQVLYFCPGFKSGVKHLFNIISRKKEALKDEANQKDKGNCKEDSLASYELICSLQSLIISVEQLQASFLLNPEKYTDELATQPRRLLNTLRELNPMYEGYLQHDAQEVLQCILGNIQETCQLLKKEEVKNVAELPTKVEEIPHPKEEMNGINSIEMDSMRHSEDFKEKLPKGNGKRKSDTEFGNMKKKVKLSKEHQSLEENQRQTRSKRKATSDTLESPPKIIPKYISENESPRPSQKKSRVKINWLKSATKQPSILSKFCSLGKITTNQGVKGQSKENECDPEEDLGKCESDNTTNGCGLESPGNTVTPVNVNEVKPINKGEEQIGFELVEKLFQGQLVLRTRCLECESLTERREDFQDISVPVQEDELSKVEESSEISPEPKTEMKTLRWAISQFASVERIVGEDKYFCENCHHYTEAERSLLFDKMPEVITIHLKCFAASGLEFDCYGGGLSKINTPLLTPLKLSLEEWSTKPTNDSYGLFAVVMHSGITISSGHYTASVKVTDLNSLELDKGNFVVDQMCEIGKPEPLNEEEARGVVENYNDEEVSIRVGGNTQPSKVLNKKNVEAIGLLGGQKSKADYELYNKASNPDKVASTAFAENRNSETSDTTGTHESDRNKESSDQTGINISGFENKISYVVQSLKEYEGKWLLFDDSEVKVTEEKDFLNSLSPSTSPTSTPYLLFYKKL
T1 sequence (Q8TAF3 whole entry partner): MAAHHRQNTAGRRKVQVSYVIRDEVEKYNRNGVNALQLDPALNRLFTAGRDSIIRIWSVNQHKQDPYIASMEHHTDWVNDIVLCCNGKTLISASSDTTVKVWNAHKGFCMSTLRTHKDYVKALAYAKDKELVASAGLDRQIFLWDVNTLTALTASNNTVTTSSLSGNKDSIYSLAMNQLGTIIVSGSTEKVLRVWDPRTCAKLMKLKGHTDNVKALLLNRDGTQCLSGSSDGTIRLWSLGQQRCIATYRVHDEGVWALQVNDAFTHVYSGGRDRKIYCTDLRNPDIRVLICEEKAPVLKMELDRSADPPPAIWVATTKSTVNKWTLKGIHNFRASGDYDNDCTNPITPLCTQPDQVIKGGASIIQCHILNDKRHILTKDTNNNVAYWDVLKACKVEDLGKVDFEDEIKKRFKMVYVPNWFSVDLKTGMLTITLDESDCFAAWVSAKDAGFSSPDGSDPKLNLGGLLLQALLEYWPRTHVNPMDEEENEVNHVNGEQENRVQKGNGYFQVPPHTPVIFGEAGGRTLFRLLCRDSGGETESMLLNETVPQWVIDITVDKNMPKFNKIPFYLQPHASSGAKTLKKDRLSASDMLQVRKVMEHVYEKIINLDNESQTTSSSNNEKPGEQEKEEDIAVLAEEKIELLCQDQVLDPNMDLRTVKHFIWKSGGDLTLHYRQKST

Structure (SMILES)	IC50 [1]	IC50 (MDA-MB-436)
COc1cc(-c2nc(C(F)(F)F)cn2C)ccc1CNc1nc(-c2c(OC)ncnc2C2CC2)nc2ccoc12 [Example 119, 2-(4-Cyclopropyl-6-methoxypyrimidin-5-yl)-N-(2-methoxy-4-(1-methyl-4-(trifluoromethyl)-1H-imidazol-2-yl)benzyl)furo[3,2-d]pyrimidin-4-amine]	0.0076 µM	0.0169 µM
COc1cc(CNc2nc(-c3c(OC)ncnc3C3CC3)nc3ccoc23)ccc1-n1nc(C(F)(F)F)cc1C [Example 122, 2-(4-Cyclopropyl-6-methoxypyrimidin-5-yl)-N-(3-methoxy-4-(5-methyl-3-(trifluoromethyl)-1H-pyrazol-1-yl)benzyl)furo[3,2-d]pyrimidin-4-amine]	0.013 µM	0.0828 µM
COc1ncnc(C2CC2)c1-c1nc(NCc2ccc(-c3nc(C(F)F)cn3C)cc2)c2occc2n1 [Example 123, 2-(4-Cyclopropyl-6-methoxypyrimidin-5-yl)-N-(4-(4-(difluoromethyl)-1-methyl-1H-imidazol-2-yl)benzyl)furo[3,2-d]pyrimidin-4-amine]	0.02 µM	0.169 µM
COc1ncnc(C2CC2)c1-c1ncc(Cl)c(NCc2ccc(-c3nc(C(F)(F)F)cn3C)cc2)n1 [Example 124, 5-Chloro-4'-cyclopropyl-6'-methoxy-N-(4-(1-methyl-4-(trifluoromethyl)-1H-imidazol-2-yl)benzyl)-[2,5'-bipyrimidin]-4-amine]	0.0061 µM	0.0132 µM
COc1ncnc(C2CC2)c1-c1ncc(F)c(N(C)Cc2ccc(-c3nc(C(F)(F)F)cn3C(C)C)cc2)n1 [Example 127, 4'-Cyclopropyl-5-fluoro-N-(4-(1-isopropyl-4-(trifluoromethyl)-1H-imidazol-2-yl)benzyl)-6'-methoxy-N-methyl-[2,5'-bipyrimidin]-4-amine]	0.0042 µM	0.0122 µM
[2H]C([2H])([2H])N(Cc1ccc(-c2nc(C(F)(F)F)cn2C2CC2)cc1)c1nc(-c2c(OC)ncnc2C2CC2)ncc1F [Example 128, 4'-Cyclopropyl-N-(4-(1-cyclopropyl-4-(trifluoromethyl)-1H-imidazol-2-yl)benzyl)-5-fluoro-6'-methoxy-N-(methyl-d3)-[2,5'-bipyrimidin]-4-amine]	0.0026 µM	0.0057 µM
[2H]C([2H])([2H])N(Cc1ccc(-c2nc(C(F)(F)F)cn2CF)cc1)c1nc(-c2c(OC)ncnc2C2CC2)ncc1F [Example 130, 4'-Cyclopropyl-5-fluoro-N-(4-(1-(fluoromethyl)-4-(trifluoromethyl)-1H-imidazol-2-yl)benzyl)-6'-methoxy-N-(methyl-d3)-[2,5'-bipyrimidin]-4-amine]	0.019 µM	0.0456 µM
C#Cc1cnc(-c2c(OC)ncnc2C2CC2)nc1NCc1ccc(-c2nc(C(F)(F)F)cn2C)cc1 [Example 132, 4'-Cyclopropyl-5-ethynyl-6'-methoxy-N-(4-(1-methyl-4-(trifluoromethyl)-1H-imidazol-2-yl)benzyl)-[2,5'-bipyrimidin]-4-amine]	0.006 µM	0.0088 µM
COc1ncnc(C2CC2)c1-c1ncc(OC(F)F)c(NCc2ccc(-n3nc(C(F)(F)F)cc3C)cc2)n1 [Example 135, 4'-Cyclopropyl-5-(difluoromethoxy)-6'-methoxy-N-(4-(5-methyl-3-(trifluoromethyl)-1H-pyrazol-1-yl)benzyl)-[2,5'-bipyrimidin]-4-amine]	0.0032 µM	0.0158 µM
COc1cc(-c2nc(C(F)(F)F)cn2C)ccc1CNc1nc(-c2c(OC)ncnc2C2CC2)ncc1OC(F)F [Example 136, 4'-Cyclopropyl-5-(difluoromethoxy)-6'-methoxy-N-(2-methoxy-4-(1-methyl-4-(trifluoromethyl)-1H-imidazol-2-yl)benzyl)-[2,5'-bipyrimidin]-4-amine]	0.017 µM	0.0249 µM
COc1ncnc(C2CC2)c1-c1ncc(CO)c(NCc2ccc(-c3nc(C(F)(F)F)cn3C(C)C)cc2)n1 [Example 137, (4'-Cyclopropyl-4-((4-(1-isopropyl-4-(trifluoromethyl)-1H-imidazol-2-yl)benzyl)amino)-6'-methoxy-[2,5'-bipyrimidin]-5-yl)methanol]	0.024 µM	0.216 µM
COCc1cnc(-c2c(OC)ncnc2C2CC2)nc1N(C)Cc1ccc(-c2nc(C(F)(F)F)cn2C(C)C)cc1 [Example 138, 4'-Cyclopropyl-N-(4-(1-isopropyl-4-(trifluoromethyl)-1H-imidazol-2-yl)benzyl)-6'-methoxy-5-(methoxymethyl)-N-methyl-[2,5'-bipyrimidin]-4-amine]	0.009 µM	0.0124 µM
C#CCN(Cc1ccc(-c2nc(C(F)(F)F)cn2C)cc1)c1nc(-c2c(OC)ncnc2C2CC2)ncc1OC [Example 139, 4'-Cyclopropyl-5,6'-dimethoxy-N-(4-(1-methyl-4-(trifluoromethyl)-1H-imidazol-2-yl)benzyl)-N-(prop-2-yn-1-yl)-[2,5'-bipyrimidin]-4-amine]	0.0052 µM	0.005 µM
COc1cnc(-c2c(OC)ncnc2C2CC2)nc1N(Cc1ccc(-c2nc(C(F)(F)F)cn2C)cc1)C1CC1 [Example 141, N,4'-Dicyclopropyl-5,6'-dimethoxy-N-(4-(1-methyl-4-(trifluoromethyl)-1H-imidazol-2-yl)benzyl)-[2,5'-bipyrimidin]-4-amine]	0.0095 µM	0.0767 µM
COc1cnc(-c2c(OC)ncnc2C2CC2)nc1N(Cc1ccc(-c2nc(C(F)(F)F)cn2C)cc1)OC [Example 142, N-(4'-Cyclopropyl-5,6'-dimethoxy-[2,5'-bipyrimidin]-4-yl)-O-methyl-N-(4-(1-methyl-4-(trifluoromethyl)-1H-imidazol-2-yl)benzyl)hydroxylamine]	0.025 µM	0.05 µM
COc1cnc(-c2cccnc2C2CC2)nc1N(C)CC1CCN(c2ccccn2)CC1 [Example 151, 2-(2-Cyclopropylpyridin-3-yl)-5-methoxy-N-methyl-N-((1-(pyridin-2-yl)piperidin-4-yl)methyl)pyrimidin-4-amine]	0.072 µM	0.0584 µM
COc1cnc(-c2cccnc2C2CC2)nc1NCC1CCN(c2nc(C(F)(F)F)cn2C)CC1 [Example 152, 2-(2-Cyclopropylpyridin-3-yl)-5-methoxy-N-((1-(1-methyl-4-(trifluoromethyl)-1H-imidazol-2-yl)piperidin-4-yl)methyl)pyrimidin-4-amine]	0.0075 µM	0.0644 µM

More lines, in order of falling IC50 [1], values ahead:

IC50 [1]	IC50 (MDA-MB-436)	Structure (SMILES)
0.019 µM	0.731 µM	COc1cnc(-c2cccc3c2N(C)CC3)nc1NCc1ccc(-c2nc(C(F)(F)F)cn2C)cc1 [Example 145, 5-Methoxy-N-(4-(1-methyl-4-(trifluoromethyl)-1H-imidazol-2-yl)benzyl)-2-(1-methylindolin-7-yl)pyrimidin-4-amine]
0.015 µM	0.135 µM	COc1ncnc(C2CC2)c1-c1ncc(OC(F)F)c(NCC2CCN(c3nc(C(F)(F)F)cn3C)CC2)n1 [Example 133, 4'-Cyclopropyl-5-(difluoromethoxy)-6'-methoxy-N-((1-(1-methyl-4-(trifluoromethyl)-1H-imidazol-2-yl)piperidin-4-yl)methyl)-[2,5'-bipyrimidin]-4-amine]
0.013 µM	0.0227 µM	COc1ncnc(C2CC2)c1-c1ncc(Cl)c(NCc2ccc(-c3nc(C(F)(F)F)cn3CF)cc2)n1 [Example 126, 5-Chloro-4'-cyclopropyl-N-(4-(1-(fluoromethyl)-4-(trifluoromethyl)-1H-imidazol-2-yl)benzyl)-6'-methoxy-[2,5'-bipyrimidin]-4-amine]
0.009 µM	0.0126 µM	[2H]C([2H])([2H])N(Cc1ccc(-c2nc(C(F)(F)F)cn2C(C)C)cc1)c1nc(-c2c(OC)ncnc2C2CC2)ncc1F [Example 129, 4'-Cyclopropyl-5-fluoro-N-(4-(1-isopropyl-4-(trifluoromethyl)-1H-imidazol-2-yl)benzyl)-6'-methoxy-N-(methyl-d3)-[2,5'-bipyrimidin]-4-amine]
0.0089 µM	0.0505 µM	COc1cc(CNc2nc(-c3c(OC)ncnc3C3CC3)nc3ccoc23)ccc1-c1nc(C(F)(F)F)cn1C [Example 120, 2-(4-Cyclopropyl-6-methoxypyrimidin-5-yl)-N-(3-methoxy-4-(1-methyl-4-(trifluoromethyl)-1H-imidazol-2-yl)benzyl)furo[3,2-d]pyrimidin-4-amine]
0.0083 µM	0.0239 µM	COc1cc(-n2nc(C(F)(F)F)cc2C)ccc1CNc1nc(-c2c(OC)ncnc2C2CC2)nc2ccoc12 [Example 121, 2-(4-Cyclopropyl-6-methoxypyrimidin-5-yl)-N-(2-methoxy-4-(5-methyl-3-(trifluoromethyl)-1H-pyrazol-1-yl)benzyl)furo[3,2-d]pyrimidin-4-amine]
0.0074 µM	0.0455 µM	COc1ncnc(C2CC2)c1-c1ncc(C#N)c(NCc2ccc(-c3nc(C(F)(F)F)cn3C)cc2)n1 [Example 131, 4'-Cyclopropyl-6'-methoxy-4-((4-(1-methyl-4-(trifluoromethyl)-1H-imidazol-2-yl)benzyl)amino)-[2,5'-bipyrimidine]-5-carbonitrile]
0.0032 µM	0.0341 µM	COc1ncnc(C2CC2)c1-c1ncc(OC(F)F)c(NCc2ccc(-c3nc(C(F)(F)F)cn3C)cc2)n1 [Example 134, 4'-Cyclopropyl-5-(difluoromethoxy)-6'-methoxy-N-(4-(1-methyl-4-(trifluoromethyl)-1H-imidazol-2-yl)benzyl)-[2,5'-bipyrimidin]-4-amine]
0.0031 µM	0.0005 µM	COc1ncnc(C2CC2)c1-c1ncc(Cl)c(NCc2ccc(-c3nc(C(F)(F)F)cn3C3CC3)cc2)n1 [Example 125, 5-Chloro-4'-cyclopropyl-N-(4-(1-cyclopropyl-4-(trifluoromethyl)-1H-imidazol-2-yl)benzyl)-6'-methoxy-[2,5'-bipyrimidin]-4-amine]

— patent EP4741386A1 (Jiangsu Yahong Meditech Co., Ltd., priority 2023, dated 2025)
